According to PubChem BioAssay AID2060488 (Molecular Pharmacology Branch, DTP, NCI, 2025):
pIC50: −log10 of the molar value.

System: 966289-007-R4-J1-PDC complex spheroid viability
Assay: Anticancer human tumor 966289-007-R4-J1-PDC patient-derived pancreatic adenocarcinoma cell line growth inhibition [GQUAD]
Conditions: for pIC50: curve of first compound; for viability, T/C: stronger effect = lower value
In short: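 Tumor cells were grown as complex spheroids with HUVEC endothelial cells and mesenchymal stem cells as stroma. G-quadruplex stabilizers were combined with targeted agents over half-log dilutions from near the clinical Cmax, or from 10 microM.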

[1] = second compound 0.0316 µM, first compound 0.0316 µM
[2] = second compound 0.0316 µM, first compound 0.1 µM
[3] = second compound 0.0316 µM, first compound 0.316 µM
[4] = second compound 0.0316 µM, first compound 1 µM
[5] = second compound 0.0316 µM, first compound 3.16 µM
[6] = second compound 0.0316 µM, first compound 10 µM
[7] = second compound 0.1 µM, first compound 0.0316 µM
[8] = second compound 0.1 µM, first compound 0.1 µM
[9] = second compound 0.1 µM, first compound 0.316 µM
[10] = second compound 0.1 µM, first compound 1 µM
[11] = second compound 0.1 µM, first compound 3.16 µM
[12] = second compound 0.1 µM, first compound 10 µM
[13] = second compound 0.316 µM, first compound 0.0316 µM
[14] = second compound 0.316 µM, first compound 0.1 µM
[15] = second compound 0.316 µM, first compound 0.316 µM
[16] = second compound 0.316 µM, first compound 1 µM
[17] = second compound 0.316 µM, first compound 3.16 µM
[18] = second compound 0.316 µM, first compound 10 µM
[19] = second compound 1 µM, first compound 0.0316 µM
[20] = second compound 1 µM, first compound 0.1 µM
[21] = second compound 1 µM, first compound 0.316 µM
[22] = second compound 1 µM, first compound 1 µM
[23] = second compound 1 µM, first compound 3.16 µM
[24] = second compound 1 µM, first compound 10 µM
[25] = second compound 3.16 µM, first compound 0.0316 µM
[26] = second compound 3.16 µM, first compound 0.1 µM
[27] = second compound 3.16 µM, first compound 0.316 µM
[28] = second compound 3.16 µM, first compound 1 µM
[29] = second compound 3.16 µM, first compound 3.16 µM
[30] = second compound 3.16 µM, first compound 10 µM
[31] = second compound 10 µM, first compound 0.0316 µM
[32] = second compound 10 µM, first compound 0.1 µM
[33] = second compound 10 µM, first compound 0.316 µM
[34] = second compound 10 µM, first compound 1 µM
[35] = second compound 10 µM, first compound 3.16 µM
[36] = second compound 10 µM, first compound 10 µM
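Also: spheroids exposed to the agents for seven days before readout.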
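For viability, T/C in this document: percent viability relative to DMSO vehicle control wells taken as 100%.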

`CC(C)n1c(=O)n(C)c2cnc3cc(F)c(-c4ccc(OCCCN5CCCCC5)nc4)cc3c21` + Cc1cnc(CNC(=O)c2c(=O)c3ccc(N4CCCN(C)CC4)nc3n3c2sc2ccccc23)cn1 showed a pIC50 (second compound 0.0316 µM) of over 7.50, a pIC50 (second compound 0.1 µM) of over 7.50 and a pIC50 (second compound 0.316 µM) of over 7.50. For the same molecule, the pIC50 (second compound 1 µM) was over 7.50, the pIC50 (second compound 3.16 µM) was over 7.50 and the pIC50 (second compound 10 µM) was over 7.50. For the same molecule, the viability, T/C [1] was 36.8%, the viability, T/C [2] was 18.8% and the viability, T/C [3] was 21.1%. For the same molecule, the viability, T/C [4] was 15.4%, the viability, T/C [5] was 33.4% and the viability, T/C [6] was 31.6%. It also gave a viability, T/C [7] of 10.5%, a viability, T/C [8] of 7.68% and a viability, T/C [9] of 8.96%. The viability, T/C [10] was 9.72%, the viability, T/C [11] was 12.6% and the viability, T/C [12] was 17.9%. For the same molecule, the viability, T/C [13] was 6.19%, the viability, T/C [14] was 6.34% and the viability, T/C [15] was 5.97%. The viability, T/C [16] was 6.08%, the viability, T/C [17] was 7.07% and the viability, T/C [18] was 8.93%. The viability, T/C [19] was 3.82%, the viability, T/C [20] was 4.77% and the viability, T/C [21] was 3.79%. It also gave a viability, T/C [22] of 4.54%, a viability, T/C [23] of 5.48% and a viability, T/C [24] of 5.76%. For the same molecule, the viability, T/C [25] was 1.67%, the viability, T/C [26] was 2.31% and the viability, T/C [27] was 1.96%. The viability, T/C [28] was 2.66%, the viability, T/C [29] was 3.94% and the viability, T/C [30] was 3%. The viability, T/C [31] was 0.09%, the viability, T/C [32] was 0.12% and the viability, T/C [33] was 0.27%. The viability, T/C [34] was 0.16%, the viability, T/C [35] was 0.16% and the viability, T/C [36] was 0.15%.
For `CC1COCCN1c1cc(-c2ccnn2C)c2ccnc(-c3ccn[nH]3)c2n1` (stereo unspecified) + Cc1cnc(CNC(=O)c2c(=O)c3ccc(N4CCCN(C)CC4)nc3n3c2sc2ccccc23)cn1, the pIC50 (second compound 0.0316 µM) was over 7.50, the pIC50 (second compound 0.1 µM) was over 7.50 and the pIC50 (second compound 0.316 µM) was over 7.50. It also gave a pIC50 (second compound 1 µM) of over 7.50, a pIC50 (second compound 3.16 µM) of over 7.50 and a pIC50 (second compound 10 µM) of over 7.50. For the same molecule, the viability, T/C [1] was 24.3%, the viability, T/C [2] was 6.05% and the viability, T/C [3] was 4.12%. The viability, T/C [4] was 4.23%, the viability, T/C [5] was 3.36% and the viability, T/C [6] was 2.9%. The viability, T/C [7] was 6.63%, the viability, T/C [8] was 3.84% and the viability, T/C [9] was 4.03%. The viability, T/C [10] was 4.94%, the viability, T/C [11] was 3.73% and the viability, T/C [12] was 3.29%. It also gave a viability, T/C [13] of 7.42%, a viability, T/C [14] of 5.9% and a viability, T/C [15] of 5.46%. For the same molecule, the viability, T/C [16] was 5.36%, the viability, T/C [17] was 3.91% and the viability, T/C [18] was 3.35%. It also gave a viability, T/C [19] of 5.44%, a viability, T/C [20] of 5.41% and a viability, T/C [21] of 6.4%. The viability, T/C [22] was 6.38%, the viability, T/C [23] was 5.26% and the viability, T/C [24] was 3.91%. It also gave a viability, T/C [25] of 3.88%, a viability, T/C [26] of 3.62% and a viability, T/C [27] of 4.85%. The viability, T/C [28] was 5.21%, the viability, T/C [29] was 6.21% and the viability, T/C [30] was 4.16%. The viability, T/C [31] was 0.03%, the viability, T/C [32] was 0.07% and the viability, T/C [33] was 0.1%. It also gave a viability, T/C [34] of 0.08%, a viability, T/C [35] of 0.11% and a viability, T/C [36] of 0.15%.
In the case of `CC1COCCN1c1cc(C2(O)CC3CCC(C2)O3)c2cnn(-c3ccn[nH]3)c2n1` (stereo unspecified) + Cc1cnc(CNC(=O)c2c(=O)c3ccc(N4CCCN(C)CC4)nc3n3c2sc2ccccc23)cn1, the pIC50 (second compound 0.0316 µM) was over 7.50, the pIC50 (second compound 0.1 µM) was over 7.50 and the pIC50 (second compound 0.316 µM) was over 7.50. It also gave a pIC50 (second compound 1 µM) of over 7.50, a pIC50 (second compound 3.16 µM) of over 7.50 and a pIC50 (second compound 10 µM) of over 7.50. The viability, T/C [1] was 17.9%, the viability, T/C [2] was 6.32% and the viability, T/C [3] was 6.87%. For the same molecule, the viability, T/C [4] was 4.01%, the viability, T/C [5] was 4.28% and the viability, T/C [6] was 3.82%. It also gave a viability, T/C [7] of 8.59%, a viability, T/C [8] of 4.79% and a viability, T/C [9] of 5.61%. It also gave a viability, T/C [10] of 4.59%, a viability, T/C [11] of 3.77% and a viability, T/C [12] of 3.82%. It also gave a viability, T/C [13] of 6.96%, a viability, T/C [14] of 6.64% and a viability, T/C [15] of 7.05%. The viability, T/C [16] was 5.35%, the viability, T/C [17] was 4.24% and the viability, T/C [18] was 3.79%. It also gave a viability, T/C [19] of 5.69%, a viability, T/C [20] of 6.03% and a viability, T/C [21] of 7.24%. It also gave a viability, T/C [22] of 5.15%, a viability, T/C [23] of 5.42% and a viability, T/C [24] of 4.18%. It also gave a viability, T/C [25] of 4.9%, a viability, T/C [26] of 5.03% and a viability, T/C [27] of 5.23%. The viability, T/C [28] was 5.64%, the viability, T/C [29] was 5.02% and the viability, T/C [30] was 3.38%. It also gave a viability, T/C [31] of 0.04%, a viability, T/C [32] of 0.08% and a viability, T/C [33] of 0.11%. The viability, T/C [34] was 0.07%, the viability, T/C [35] was 0.15% and the viability, T/C [36] was 0.14%.
